Consider three compounds from US8541364B2, “Use of a octreotide as a therapeutic agent” (Mondobiotech Laboratories AG, priority 2007, dated 2013).

For one data set, the system named is HIV-1IIIB. The experiment in a line: HIV-1 antiviral assay, CPE reduction (MTS). To be noted: peptide 10 micrograms per ml; 6 days post-infection.
A further data set relates to HepG2-2.2.15 cells. The experiment in a line: HBV assay cytotoxicity, dye uptake cell viability. It is filed as cell-based. To be noted: peptide 10 micrograms per ml.
For another data set, the system named is HCMV strain AD169. The data set can be described thus: HCMV plaque reduction assay. It is filed as cell-based. To be noted: HCMV in MRC-5 cells; peptide 10 micrograms per ml; 7-10 days. From the text: (§1) Cells were split twic a week 1:2.
Ganciclovir was used as positive control.
In general terms: In a plaque reduction assay, fewer plaques than in the control indicate reduced infectivity or spread.

Another data set deals with MRC-5 cells. The experiment in a line: HCMV assay cytotoxicity testing, CellTiter 96. The note with it: 6 days incubation. It is filed as cell-based, human. As for the experimental part:
as §1
For cytotxicity testing, MRC-5 cells were seeded at 2,500 cells/well in 96 well plates using growth medium. […] The following day, peptide was added and tested in duplicates. After a 6 days incubation period, cell viability was measured using CellTiter 96 Solution (Promega). Plates were incubated for additional 4 hours at 37° C.

The test system of a further data set is MRSA. The data set can be described thus: Methicillin resistant Staphylococcus aureus (MRSA) assay. It is filed as cell-based. The note with it: MRSA growth; peptide 10 micrograms per ml. As for the experimental part: (§2) The antibacterial assay was conducted using clear, U-bottom 96-well microtiter plates. Cation-adjusted Mueller-Hinton Broth (MHB) was used for testing MRSA. The peptide of the invention (0.1 ml of each—10 micrograms per ml—) was dispensed into wells in duplicate. Then the wells were inoculated with 5×10^5 CFU/mL MRSA in 0.1 ml volume. For control purposes, each plate included 4 wells containing media without bacterial inoculum and 4 wells containing medium with inoculum but without peptide. The plates were incubated for 12 h at 37° C., and read visually 18-24 hours post-incubation. Growth control of MRSA was examined first to determine adequacy of media preparations and growth conditions. Acceptable growth is defined as 2 mm wide button of cells at the bottom of each sample well, or obvious turbidity in the culture supernatant. Test wells were examined and scored as positive/negative for activity. A positive score for activity is based on complete inhibition of macroscopic growth of the test MRSA.

For the next data set, the system named is Pseudomonas aeruginosa. The data set can be described thus: Pseudomonas aeruginosa assay. It is filed as cell-based. The note with it: Pseudomonas aeruginosa growth; peptide 10 micrograms per ml. As for the experimental part: as §2, with “testing Pseudomonas aeruginosa.” for “testing MRSA.”, “CFU/mL Pseudomonas aeruginosa” for “CFU/mL MRSA”, “of Pseudomonas aeruginosa” for “of MRSA”, “as ≧2” for “as 2”, “test Pseudomonas aeruginosa.” for “test MRSA.”

A further data set relates to Streptococcus pneumoniae. The data set can be described thus: Streptococcus pneumoniae assay. It is filed as cell-based. The note with it: Streptococcus pneumoniae growth; peptide 10 micrograms per ml. As for the experimental part: as §2, with “testing Streptococcus pneumoniae.” for “testing MRSA.”, “CFU/mL Streptococcus pneumoniae” for “CFU/mL MRSA”, “of Streptococcus pneumoniae” for “of MRSA”, “as ≧2” for “as 2”, “test Streptococcus pneumoniae.” for “test MRSA.”

Data set [1] concerns A549 cells. The experiment in a line: Propidium iodide cell cycle assay. It is filed as cell-based, human. The note with it: 10 micrograms per ml, 24 hours. As for the experimental part:
Human A549 cells (carcinomic human alveolar basal epithelial cells) were utilized in the experiments employing the Propidium iodide cell cycle assay. The eukaryotic cell cycle is a series of events that take place in a cell leading to its replication.
Propidium iodide is an intercalating agent and a fluorescent molecule that can be used to stain DNA. Cells were incubated for 24 hours with test peptide—10 micrograms per ml—or left untreated. After that cells were trypsinized, suspended in medium+10% FCS, centrifuged (1000 rpm, 5 min), and the cell pellet resuspended in PBS (1 ml). The cells were pipetted into 2.5 ml absolute EtOH (final concentration approx. 70%) and incubated on ice for 15 min. Thereafter, cells were pelleted at 1500 rpm for 5 min and resuspended in Propidium iodide solution in PBS. After incubation for 40 min at 37° C., cells were analyzed in the FACS.

Data set [2] deals with PHA-stimulated PBMC (T cell proliferation). The data set can be described thus: T cell proliferation assay. It is filed as cell-based, human. To be noted: 3H-thymidine incorporation; 10 micrograms per ml. (Incorporation of labelled thymidine or its analogues reports DNA synthesis.)
Protocol: Human Peripheral Blood Mononuclear Cells (PBMC) were obtained from normal human donors. The T cell proliferation was induced by stimulation of the cells with the T cell mitogen phytohemagglutinin (PHA), either in the absence (positive proliferation control), or in the presence of test peptide—10 micrograms per ml—to examine their effects on the T cell proliferating response. 10^5/well PBMC were plated in 96-well microtiter plates and assayed in duplicate with the peptide. Cell cultures were incubated at 37° C. for 3 days in a 5% CO2 incubator and were thereafter pulsed with 1 microCi/well ^3H-thymidine for additional 12 hours of culture. At the end of incubation time, the plates were harvested and the cells counted by liquid scintillation for the incorporation of ^3H-thymidine as a measure of T cell proliferation.
In data set [3] the test system is A549 cells. The data set can be described thus: Apoptosis induction assay (Annexin-5). It is filed as cell-based, human. The note with it: 10 micrograms per ml, 24 hours. From the text:
Human A549 cells (carcinomic human alveolar basal epithelial cells) were utilized in the experiments employing the Annexin-5 apoptosis assay. Annexin-5 is a member of a highly conserved protein family that binds acidic phospholipids in a calcium-dependent manner. […] Phosphatidylserine is translocated from the inner side of the plasma membrane to the outer layer when cells undergo death by apoptosis or cell necrosis and serves as a signal by which cell destined for death are recognized by phagocytes. Test peptide—10 micrograms per ml—were exposed for 24 hours to the A549 cells before they were analyzed for signs of apoptosis.

Data set [4] concerns A549 cells. The experiment in a line: Apoptosis prevention assay (Annexin-5, C2 ceramide). It is filed as cell-based, human. The note with it: A549 cells pretreated 30 min; 10 micrograms per ml. From the text:
Human A549 cells (carcinomic human alveolar basal epithelial cells) were utilized in the experiments employing the Annexin-5 apoptosis assay. Annexin-5 is a member of a highly conserved protein family that binds acidic phospholipids in a calcium-dependent manner. […] Phosphatidylserine is translocated from the inner side of the plasma membrane to the outer layer when cells undergo death by apoptosis or cell necrosis and serves as a signal by which cell destined for death are recognized by phagocytes. A549 cells were pretreated for 30 min with test peptide—10 micrograms per ml—followed by the exposure to C2 ceramide. Ceramide mediates cell apoptosis through the activation of the mitogen activating protein kinase (MAPK) and the stress activated kinase (JNK/SAPK). C2 ceramide is a synthetic, membrane soluble analog of ceramide.

For data set [5], the system named is Ovalbumin-restimulated spleen cells. The data set can be described thus: Th1/Th2 cytokine profiling assay. It is filed as cell-based, Balb/c mice. To be noted: 10 micrograms per ml; 72 hours. From the text: The Balb/c mice (originated in 1923, it is a popular strain and is used in many different research disciplines. Also classified as an inbred from the production of 20 or more successive brother-sister matings, the Balb/c mouse is albino and small in size) were immunized on Days 1, 15, and 29 with Ovalbumin (Ovalbumin is the main protein found in egg white, commonly used to stimulate an immunological reaction in test animals) in PBS (5 micrograms/injection). On day 50, spleens of the mice were harvested (3 weeks after last boost with Ovalbumin). Cells were cultured (2×10^5/well in triplicate) and incubated with culture medium or test peptide—10 micrograms per ml—for 30 min. Thereafter, additional Ovalbumin was added to the cells at 10 micrograms/ml for in vitro restimulation of the cells. 72 hours later, cell supernatants were harvested and assayed using the Becton Dickinson Mouse Th1/Th2 Cytokine CBA Kit. This kit can be used to measure Interleukin-2 (IL-2), Interleukin-4 (IL-4), Interleukin-5 (IL-5), Interferon-γ (IFN-γ), and Tumor Necrosis Factor-α (TNF-α) protein levels in a single sample. The kit performance has been optimized for analysis of physiologically relevant concentrations (pg/ml levels) of specific cytokine proteins in tissue culture supernatants and serum samples.

Data set [6] concerns HUVEC. The data set can be described thus: Endothelial cell migration assay. It is filed as cell-based, human. To be noted: 10 micrograms per ml, 22 hours. As for the experimental part: Endothelial cell migration is a prerequisite for the process of neo-vascularization or angiogenesis which is crucial for on-site recruitment of blood vessel formation. Primary Human endothelial cells (HUVEC) were seeded in insert chambers with 3 micrometer pore size of multi-transwell plate for 6 hours at 37° C. in Endothelial Cell Basal Medium (EBM) supplemented with 0.1% bovine serum albumin. Thereafter, designated concentration of test peptide—10 micrograms per ml—was added in duplicate wells. The endothelia were allowed to migrate for 22 hours at 37° C., then, migrated cells were fixed and stained with Hoechst 33342 dye. Images of 3 fields per insert were taken and the number of migrated cells per field were quantified using the ImageProPlus software. Data were analyzed for the average number of the migrated cells and standard deviation of six data points for each treatment condition. Active test peptide against HUVEC migration was determined based on 50% inhibition of migrated cells as compared with the control. Statistic p values were computed using the Student's t-test.

The subject of data set [7] is HUVEC. The data set can be described thus: Endothelial tube formation assay. It is filed as cell-based, human. The note with it: 10 micrograms per ml, 20 hours. As for the experimental part: The endothelial tube formation assay is based on the ability of endothelial cells to form three-dimensional capillary-like tubular structures when cultured on a gel of basement membrane extract. The endothelial tube formation assay represents a powerful model for studying inhibition and induction of angiogenesis. Pre-labeled HUVEC with Calcein AM were seeded in a 96-well culture plate coated with extracellular metrix (Chemicon international Cat. ECM625) and treated with test peptide—10 micrograms per ml—in full growth medium. Positive control was vehicle only. The endothelial cells were allowed to form tubes foe 20 hours and were then examined under an inverted fluorescent microscope. Duplicate wells for each treatment were photographed and quantitatevily analyzed for an average tubule length using image analysis software ImageProPlus. Raw data were expressed as average tubule lenghs in pixels±standard deviation. Statistic p values were computed using the Student's t-test.

A further data set deals with CEM-SS cells. The experiment in a line: HIV-1 assay cytotoxicity, MTS cell viability. The note with it: peptide 10 micrograms per ml.

Take `CC(C)(C)NC(=O)[C@@H]1CN(Cc2cccnc2)CCN1C[C@@H](O)C[C@@H](Cc1ccccc1)C(=O)N[C@H]1c2ccccc2C[C@H]1O` [Indinavir]: in the data set on HIV-1IIIB, the “% CPE reduction in HIV-1 infected CEM-SS cells” value (from here on “% CPE reduction”) was found to be 100%.
For `C[C@@H](O)[C@@H]1NC(=O)[C@H](CCCCN)NC(=O)[C@@H](Cc2c[nH]c3ccccc23)NC(=O)[C@H](Cc2ccccc2)NC(=O)[C@@H](NC(=O)[C@H](N)Cc2ccccc2)CSSC[C@@H](C(=O)N[C@H](CO)[C@@H](C)O)NC1=O` [Octreotide, D-Phe-Cys-Phe-D-Trp-Lys-Thr-Cys-L-threoninol], the “% Cell viability” value in the data set on HepG2-2.2.15 cells is recorded as 97.8%; in the data set with MRC-5 cells, 100%; in the data set with CEM-SS cells, 100%. The “% plaque reduction” value in the data set with HCMV strain AD169 was determined as 0.0%. The % inhibition (commonly the relative decrease from the control value, in per cent) in the data set on MRSA is 0.0%; in the data set with Pseudomonas aeruginosa, 0.0%; in the data set with Streptococcus pneumoniae, 100.0%. For the same compound, the “Cell cycle analysis G2/M” value with A549 cells [1] is listed as 9.2. In data set [2], the “% of PHA induced control” value was 100.0%. The “% of induction” value with A549 cells [3] turned out to be 2.6%. For the same compound, in the data set on A549 cells [4], the “% prevention of ceramide induced apoptosis” value stood at 0.0%. For the same compound, the “IFNγ spleen cells; TH1 response (% of control)” value in data set [5] is given as 56.0 % of control. Besides, the “% inhibition of migration” value with HUVEC [6] was −24%. In the data set on HUVEC [7], the “% inhibition of tube formation” value came out at 8%. Besides, the “% CPE reduction” value in the data set with HIV-1IIIB was 0.0%.
Turning to `Cc1cn([C@H]2C[C@H](N=[N+]=[N-])[C@@H](CO)O2)c(=O)[nH]c1=O` [AZT, reference compound], the “% CPE reduction” value with HIV-1IIIB stood at 99%. Further, the “% Cell viability” value in the data set on CEM-SS cells was 97%.
